The term IC50 denotes the concentration that gives 50% inhibition. The low end stands for inhibition by little substance, the high end for a need for much substance.

The values below come from patent publication US20200240995A1, “KDAC VARIANTS AND USES THEREOF” (Max-Planck-Gesellschaft Zur Forderung Der Wissenschaften …, priority 2017, published 2020).

Experiment [1] has as its system KDACs. The experiment is described as follows: FLuc K529ac activation by different KDACs. The experiment is classed as biochemical. The note with it: purified FLuc K529ac. As to the method: FIG. 7: FLuc K529ac activation by different KDACs. Sirtuins were used at 20 μg/ml, while HDAC8 concentration was 10 mg/ml with tenfold higher FLuc K529ac. All error bars are standard deviations of triplicates.
It was tested whether purified FLuc K529ac can be used to quantify KDAC activity by incubating it with various different KDACs (FIG. 7). Prior to treatment with a KDAC the enzyme produced very little bioluminescence. After incubation with various KDACs the luminescence increased up to 130 fold.

The target in experiment [2] is T1, SirT2 (Homo sapiens, UniProt Q8IXJ6).
T1 sequence (Q8IXJ6 56-356): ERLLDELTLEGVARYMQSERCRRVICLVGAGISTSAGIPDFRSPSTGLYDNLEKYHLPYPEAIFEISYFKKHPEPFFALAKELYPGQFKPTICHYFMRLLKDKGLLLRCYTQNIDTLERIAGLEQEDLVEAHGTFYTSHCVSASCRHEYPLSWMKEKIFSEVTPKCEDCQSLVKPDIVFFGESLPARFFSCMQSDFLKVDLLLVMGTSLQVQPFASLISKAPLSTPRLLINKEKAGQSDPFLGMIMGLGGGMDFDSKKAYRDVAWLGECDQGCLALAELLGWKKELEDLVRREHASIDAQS
The experiment is described as follows: FLuc K529ac-based KDAC assay, inhibition or activation of SirT2 deacetylation.
Procedure: Typical endpoint deacetylation reactions contain: 30 nM Firefly Luciferase K529ac, 1 mM NAD^+, 1 μg/ml KDAC in 50 μl KDAC buffer (25 mM Tris/HCl pH 8.0, 137 mM NaCl, 2.7 mM KCl, 1 mM MgCl2, 1 mM DTT, 1 mg/ml BSA). The reactions are incubated for 1 h at 25° C. Luciferase activity is then assayed by addition of an equal volume of a mixture containing 40 mM Tricine, 200 μM EDTA, 7.4 mM MgSO4, 2 mM NaHCO3, 34 mM DTT, 0.5 mM ATP and 0.5 mM luciferin, pH 7.8^4. Luminescence is quantified using a FluoStar Omega Microplate Reader (BMG Labtech).
The continuous FLuc-based KDAC assay was set up by mixing all the components of the endpoint assay immediately. Usually NAD^+ was omitted initially and added from a 20-fold stock solution after 5 min preincubation to start the reaction. Luminescence was recorded every minute over a period of 30 min. KDAC activity was calculated from the slope of the linear phase of the reaction.
The effect of the compounds was analyzed at 10 μM on SirT2 activity using the FLuc K529ac assay in endpoint format.

Take “FLuc K529ac: Firefly luciferase with N(ε)-acetyl-lysine in place of K529, reporter substrate for KDACs”: the “Luminescence increase after incubation with various KDACs” value in experiment [1] was “up to 130 fold”.
On to `Oc1cc(O)cc(/C=C/c2ccc(O)c(O)c2)c1` [Compound 2, piceatannol], for which the IC50 in experiment [2] was determined as 5.5 µM.
